Structures are written as SMILES.

The nature of this data set: head-to-tail macrolactamisation of side-chain-protected linear peptides (crude from 2-ClTrt resin, TFE cleavage); DEPBT (2-2.5 equiv), NEt3 (10-12 equiv), 24 h; AcOH quench, prep HPLC. The settings on record: MeCN with <1-10% DMSO (3i: 5% DMF in MeCN), 2.0 mM, 25.0 °C.

Regarding `Cc1c(C)c(S(=O)(=O)NC(=N)NCCC[C@@H]2NC(=O)[C@H](C)NC(=O)[C@H](C)NC(=O)[C@H]([C@@H](C)OC(C)(C)C)NC(=O)[C@H](CSC(c3ccccc3)(c3ccccc3)c3ccccc3)NC2=O)c(C)c2c1OC(C)(C)C2` [H-Arg(Pbf)-Cys(Trt)-Thr(tBu)-Ala-Ala-OH], under “from Cc1c(C)c(S(=O)(=O)NC(=N)NCCC[C@H](N)C(=O)N[C@@H](CSC(c2ccccc2)(c2ccccc2)c2ccccc2)C(=O)N[C@H](C(=O)N[C@@H](C)C(=O)N[C@@H](C)C(=O)O)[C@@H](C)OC(C)(C)C)c(C)c2c1OC(C)(C)C2, 15-membered ring, 24.0 h”, the ring closure, isolated yield is 21%.

Take `Cc1c(C)c(S(=O)(=O)NC(=N)NCCC[C@@H]2NC(=O)[C@H](C)NC(=O)[C@H](Cc3cn(C(=O)OC(C)(C)C)c4ccccc34)NC(=O)[C@H]([C@@H](C)OC(C)(C)C)NC(=O)[C@H](CSC(c3ccccc3)(c3ccccc3)c3ccccc3)NC2=O)c(C)c2c1OC(C)(C)C2` [H-Arg(Pbf)-Cys(Trt)-Thr(tBu)-Trp(Boc)-Ala-OH]: the ring closure, isolated yield (from Cc1c(C)c(S(=O)(=O)NC(=N)NCCC[C@H](N)C(=O)N[C@@H](CSC(c2ccccc2)(c2ccccc2)c2ccccc2)C(=O)N[C@H](C(=O)N[C@@H](Cc2cn(C(=O)OC(C)(C)C)c3ccccc23)C(=O)N[C@@H](C)C(=O)O)[C@@H](C)OC(C)(C)C)c(C)c2c1OC(C)(C)C2, 15-membered ring, 24.0 h) amounted to 16%.

As to `CC(C)C[C@@H]1NC(=O)[C@H](CSC(c2ccccc2)(c2ccccc2)c2ccccc2)NC(=O)[C@H](CC(C)C)NC(=O)[C@@H]2CCCN2C(=O)[C@H](CC(=O)NC(c2ccccc2)(c2ccccc2)c2ccccc2)NC(=O)[C@H](CC(C)C)NC(=O)[C@@H]2CCCN2C(=O)[C@H](CCC(=O)OC(C)(C)C)NC1=O` [H-Leu-Glu(OtBu)-Pro-Leu-Asn(Trt)-Pro-Leu-Cys(Trt)-OH], the ring closure, isolated yield (from CC(C)C[C@H](NC(=O)[C@@H]1CCCN1C(=O)[C@H](CC(=O)NC(c1ccccc1)(c1ccccc1)c1ccccc1)NC(=O)[C@H](CC(C)C)NC(=O)[C@@H]1CCCN1C(=O)[C@H](CCC(=O)OC(C)(C)C)NC(=O)[C@@H](N)CC(C)C)C(=O)N[C@@H](CSC(c1ccccc1)(c1ccccc1)c1ccccc1)C(=O)O, 24-membered ring, 24.0 h) amounted to 23%.

Take `CC[C@H](C)[C@@H]1NC(=O)[C@@H]2CCCN2C(=O)[C@H](CCCCNC(=O)OC(C)(C)C)NC(=O)[C@H](CSC(c2ccccc2)(c2ccccc2)c2ccccc2)NC(=O)[C@H](Cc2cn(C(=O)OC(C)(C)C)c3ccccc23)NC(=O)[C@H]([C@@H](C)OC(C)(C)C)NC(=O)[C@@H]2CCCN2C1=O` [H-Lys(Boc)-Pro-Ile-Pro-Thr(tBu)-Trp(Boc)-Cys(Trt)-OH]: under “from CC[C@H](C)[C@H](NC(=O)[C@@H]1CCCN1C(=O)[C@@H](N)CCCCNC(=O)OC(C)(C)C)C(=O)N1CCC[C@H]1C(=O)N[C@H](C(=O)N[C@@H](Cc1cn(C(=O)OC(C)(C)C)c2ccccc12)C(=O)N[C@@H](CSC(c1ccccc1)(c1ccccc1)c1ccccc1)C(=O)O)[C@@H](C)OC(C)(C)C, 21-membered ring”, the ring closure, isolated yield is 0%.

For `CC[C@H](C)[C@@H]1NC(=O)[C@H](Cc2cn(C(=O)OC(C)(C)C)c3ccccc23)NC(=O)[C@@H]2CCCN2C(=O)[C@H](CSC(c2ccccc2)(c2ccccc2)c2ccccc2)NC(=O)[C@@H]2CCCN2C(=O)[C@H](CCCCNC(=O)OC(C)(C)C)NC(=O)[C@H]([C@@H](C)OC(C)(C)C)NC1=O` [H-Thr(tBu)-Lys(Boc)-Pro-Cys(Trt)-Pro-Trp(Boc)-Ile-OH], the ring closure, isolated yield (from CC[C@H](C)[C@H](NC(=O)[C@H](Cc1cn(C(=O)OC(C)(C)C)c2ccccc12)NC(=O)[C@@H]1CCCN1C(=O)[C@H](CSC(c1ccccc1)(c1ccccc1)c1ccccc1)NC(=O)[C@@H]1CCCN1C(=O)[C@H](CCCCNC(=O)OC(C)(C)C)NC(=O)[C@@H](N)[C@@H](C)OC(C)(C)C)C(=O)O, 21-membered ring, 24.0 h) is 29%.

On to `CC[C@H](C)[C@@H]1NC(=O)[C@@H]2CCCN2C(=O)[C@H](CCCCNC(=O)OC(C)(C)C)NC(=O)[C@H](CSC(c2ccccc2)(c2ccccc2)c2ccccc2)NC(=O)[C@H](Cc2cn(C(=O)OC(C)(C)C)c3ccccc23)NC(=O)[C@H]([C@@H](C)OC(C)(C)C)NC(=O)[C@@H]2CCCN2C1=O` [H-Trp(Boc)-Cys(Trt)-Lys(Boc)-Pro-Ile-Pro-Thr(tBu)-OH], for which the ring closure, isolated yield (from CC[C@H](C)[C@H](NC(=O)[C@@H]1CCCN1C(=O)[C@H](CCCCNC(=O)OC(C)(C)C)NC(=O)[C@H](CSC(c1ccccc1)(c1ccccc1)c1ccccc1)NC(=O)[C@@H](N)Cc1cn(C(=O)OC(C)(C)C)c2ccccc12)C(=O)N1CCC[C@H]1C(=O)N[C@H](C(=O)O)[C@@H](C)OC(C)(C)C, 21-membered ring, 24.0 h) is 12%.

As for `CC[C@H](C)[C@@H]1NC(=O)[C@H](CSC(c2ccccc2)(c2ccccc2)c2ccccc2)NC(=O)[C@@H]2CCCN2C(=O)[C@H](CCCCNC(=O)OC(C)(C)C)NC(=O)[C@H](COC(C)(C)C)NC(=O)[C@H](CCCCNC(=O)OC(C)(C)C)NC(=O)[C@H](CCCCNC(=O)OC(C)(C)C)NC(=O)[C@H](Cc2ccccc2)NC1=O`, for the setting “from CC[C@H](C)[C@H](NC(=O)[C@H](CSC(c1ccccc1)(c1ccccc1)c1ccccc1)NC(=O)[C@@H]1CCCN1C(=O)[C@H](CCCCNC(=O)OC(C)(C)C)NC(=O)[C@H](COC(C)(C)C)NC(=O)[C@@H](N)CCCCNC(=O)OC(C)(C)C)C(=O)N[C@@H](Cc1ccccc1)C(=O)N[C@@H](CCCCNC(=O)OC(C)(C)C)C(=O)O, 24-membered ring, 24.0 h”, the ring closure, isolated yield came to 36%.

Turning to `CC[C@H](C)[C@@H]1NC(=O)[C@H](COC(C)(C)C)NC(=O)[C@H](CCCCNC(=O)OC(C)(C)C)NC(=O)[C@H](Cc2ccccc2)NC(=O)[C@@H]2CCCN2C(=O)[C@H](CCCCNC(=O)OC(C)(C)C)NC(=O)[C@H](CSC(c2ccccc2)(c2ccccc2)c2ccccc2)NC(=O)[C@H](CCCCNC(=O)OC(C)(C)C)NC1=O`, the ring closure, isolated yield (from CC[C@H](C)[C@H](NC(=O)[C@H](COC(C)(C)C)NC(=O)[C@H](CCCCNC(=O)OC(C)(C)C)NC(=O)[C@H](Cc1ccccc1)NC(=O)[C@@H]1CCCN1C(=O)[C@H](CCCCNC(=O)OC(C)(C)C)NC(=O)[C@H](CSC(c1ccccc1)(c1ccccc1)c1ccccc1)NC(=O)[C@@H](N)CCCCNC(=O)OC(C)(C)C)C(=O)O, 24-membered ring, 24.0 h) amounted to 22%.

Turning to `Cc1c(C)c(S(=O)(=O)NC(=N)NCCC[C@@H]2NC(=O)[C@H](C)NC(=O)[C@H](Cc3cn(C(=O)OC(C)(C)C)c4ccccc34)NC(=O)[C@H]([C@@H](C)OC(C)(C)C)NC(=O)[C@H](C)NC2=O)c(C)c2c1OC(C)(C)C2` [H-Arg(Pbf)-Ala-Thr(tBu)-Trp(Boc)-Ala-OH], the ring closure, isolated yield (from Cc1c(C)c(S(=O)(=O)NC(=N)NCCC[C@H](N)C(=O)N[C@@H](C)C(=O)N[C@H](C(=O)N[C@@H](Cc2cn(C(=O)OC(C)(C)C)c3ccccc23)C(=O)N[C@@H](C)C(=O)O)[C@@H](C)OC(C)(C)C)c(C)c2c1OC(C)(C)C2, 15-membered ring, 24.0 h) came out at 27%.

(Values after article PMC9286623.)
